In US7422867B2, “Methods of identifying compounds that modulate IL-4 receptor mediated IgE synthesis utilizing a CLLD8 protein” (Rigel Pharmaceuticals, Inc., priority 2002, dated 2008):

Experiments:
[1] = tested on: IL-4 induced germline ε transcription (ε promoter reporter in A5T4 cells); assay: Re-infection (DNA transfer) assay in naïve A5T4 reporter cells; functional profile of mutants; type: cell-based, human; conditions: for Reporter Ratio: screening in the A5T4 reporter line, wild type and mutants
Procedure: The ability of peptide CL02A3 wt to inhibit germline ε transcription was confirmed in naïve cells. Briefly, Phoenix cells were transfected with a retroviral vector encoding a BFP-CL02A3 wt peptide fusion as described in WO 99/58663 and WO 97/27213. Naïve A5T4 cells were infected with the resultant virions and grown for 3 days. The infected cells were stimulated with IL-4 (60 U/mL) and, after 3 days, the cells were assessed by FACS for BFP and GFP.
A collection of CL02A3 mutants was generated by replacing single or double amino acid residues in the sequence of CL02A3 wt with a different amino acid, typically an alanine or glycine, as described in copending application Ser. No. 10/095,659, entitled Methods of Identifying Protein Targets, filed Mar. 8, 2002. The functional profiles for the mutants derived from CL02A3 wt was obtained by constructing and screening for activity in the A5T4 reporter cell line in the manner described above. The activity of each mutant at the germline ε promoter is reflected in the reporter ratio, as described above. The reporter ratios were the functional values that were used to develop the functional profiles.
TABLE 2 depicts the amino acid sequences (the dual alanine mutations are underlined) of the mutants tested and the measured reporter ratios when screening in the A5T4 reporter line.
Comparison of the interaction and functional profiles was performed by categorizing the mutants of CL02A3 based on the functional and interaction assays. Based on the reporter ratio, described in panel C of FIG. 4, each mutant was categorized into one of four functional categories: (1) reduction of function (ROF); (2) loss of function (LOF); (3) increase of function (IOF) or (4) functionally neutral (N), as compared to the activity of the wild type peptide, here CL02A3 wt. As mentioned previously, cells expressing a peptide that inhibits germline ε transcription have reporter ratios of ≧1.1. Cells expressing a loss of function mutant have a reporter ratio of […]. […] Functionally neutral mutants have reporter ratios that fall within ±50% of that of the CL02A3 wt peptide. The % increase or decrease in reporter ratio is calculated after subtracting 1.0 from the individual ratios. Using these criteria, peptides CL02A3LG (SEQ ID NO:2), CL02A3TP (SEQ ID NO:4), and CL02A3EQ (SEQ ID NO:5) were designated as IOF mutants, peptide CL02A3LGW (SEQ ID NO:3), CL02A3HH (SEQ ID NO:8), CL02A3PW (SEQ ID NO:9) were designated as ROF mutants, peptides CL02A3HG (SEQ ID NO:6), and CL02A3GC (SEQ ID NO:7) were designated as neutral, and peptide CL02A3AM (SEQ ID NO:10) was designated as a LOF mutant.

[2] = target: T1, human CLLD8 protein (hCLLD8) (Homo sapiens, UniProt Q96T68, E117G/V473M); assay: β-galactosidase yeast two hybrid (YTH) interaction assay; type: binding
T1 construct: expressed in transfected cells; prey cDNA came from a library of the A5T4 (BJAB-derived human B-cell) reporter line
T1 sequence (Q96T68 1-719 E117G/V473M): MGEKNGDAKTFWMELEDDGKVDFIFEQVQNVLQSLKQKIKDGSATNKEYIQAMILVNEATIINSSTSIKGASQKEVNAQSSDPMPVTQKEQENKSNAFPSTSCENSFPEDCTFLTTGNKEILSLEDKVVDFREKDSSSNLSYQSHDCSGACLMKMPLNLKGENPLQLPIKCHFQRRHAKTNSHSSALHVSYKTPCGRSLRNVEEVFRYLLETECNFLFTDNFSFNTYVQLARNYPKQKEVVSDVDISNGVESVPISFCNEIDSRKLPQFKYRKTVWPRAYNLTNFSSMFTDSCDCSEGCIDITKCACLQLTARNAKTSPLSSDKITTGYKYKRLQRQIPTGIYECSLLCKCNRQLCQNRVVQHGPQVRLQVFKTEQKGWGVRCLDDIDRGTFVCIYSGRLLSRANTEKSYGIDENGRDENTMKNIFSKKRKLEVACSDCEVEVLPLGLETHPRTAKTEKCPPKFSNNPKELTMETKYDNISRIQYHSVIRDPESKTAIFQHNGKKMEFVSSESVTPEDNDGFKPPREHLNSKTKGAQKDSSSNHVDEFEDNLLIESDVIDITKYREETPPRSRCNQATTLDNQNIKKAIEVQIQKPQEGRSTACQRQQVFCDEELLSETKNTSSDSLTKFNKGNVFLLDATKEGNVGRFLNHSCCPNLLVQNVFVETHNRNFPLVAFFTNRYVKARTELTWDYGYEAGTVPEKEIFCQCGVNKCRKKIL
Procedure: Potential binding partners for peptide CL02A3 wt were identified in a β-galactosidase yeast two-hybrid (YTH) assay using peptide CL02A3 wt as bait and a cDNA library constructed from the A5T4 reporter cell line as prey. Binding was assessed by β-galactosidase quantification using BetaFluor (Novagen) as a substrate. A negative interaction control (no cDNA fused downstream of the GAL4 activation domain sequence) was also run. A general outline of the YTH assay is illustrated in FIG. 5A. Following clustering, filtering to remove non-specific bait hits (e.g., GFP and BFP), singletons and clusters recognized by 10 or more cDNA baits (based upon historical YTH assays), and prioritization, 64 prey clones were identified as hits.
Potential targets identified in the YTH assay were reconfirmed as generally outlined in FIG. 6. The cDNA clones identified as hits in the YTH assay were purified and rescreened for interaction with the CL02A3 wt peptide in a YTH assay. The hit clones were also screened in a control assay for interaction with the BFP using a vector (pGBKT7) that contained only the BFP and not the CL02A3 peptide. At this stage, 51 putative target clones remained.
The interaction of CL02A3 wt peptide and its mutants with the clones identified as potential targets for the peptide CL02A3 wt was then quantified in a β-galactosidase YTH assay. The YTH assay was performed in the manner described above. A general outline of this YTH assay is illustrated in FIG. 5B. For each clone tested, an interaction profile was developed by comparing the β-galactosidase activity of each mutant to that of the wild type peptide, as described above.
The interaction of these IOF, ROF and LOF mutants with different polypeptides encoded by the putative target clones were quantified using the YTH assay described above. […]

[3] = tested on: endogenous germline α promoter; assay: TAQMAN assay of endogenous germline α promoter transcription in ST486 cells; type: cell-based; conditions: ST486 cells stimulated with TGF-β 40 ng/ml; average of 3 values
Procedure: The assay was similar to that described in the immediately preceding section, except that ST486 cells (ATCC # CRL-1647) engineered to express the tetracycline-regulated transactivator were infected and the infected cells were stimulated with TGF-β (40 ng/ml; Peprotech). The primers and probe, which are specific for the transcription product driven by the ST486 endogenous α promoter, were as follows (the probe was labeled at the 5′-end with Fam and at the 3′-end with Tamra): […]

binding to human CLLD8 protein in yeast two hybrid interaction assay [2]	Sequence	Reporter Ratio [1]	further results
–	AMAAHHGWPWGMEQGCTPLG (peptide encoded by synthetic oligomer) [CL02A3HG]	1.5	–
–	AMHGAAGWPWGMEQGCTPLG (peptide encoded by synthetic oligomer) [CL02A3HH]	1.29	–
found to bind	AMHGHHAAPWGMEQGCTPLG (peptide encoded by synthetic oligomer) [CL02A3GW]	–	–
–	AMHGHHGWAAGMEQGCTPLG (peptide encoded by synthetic oligomer) [CL02A3PW]	1.24	–
–	AMHGHHGWPWGMAAGCTPLG (peptide encoded by synthetic oligomer) [CL02A3EQ]	2.23,	–
–	AMHGHHGWPWGMEQAATPLG (peptide encoded by synthetic oligomer) [CL02A3GC]	1.89	–
–	AMHGHHGWPWGMEQGCAALG (peptide encoded by synthetic oligomer) [CL02A3TP]	1.91	–
found to bind	AMHGHHGWPWGMEQGCTPAA (peptide encoded by synthetic oligomer) [CL02A3LG]	–	–
found to bind	AMHGHHGWPWGMEQGCTPLG (peptide encoded by synthetic oligomer) [CL02A3wt]	–	endogenous α inhibition ratio [3]: 0.89
–	RAHGHHGWPWGMEQGCTPLG (peptide encoded by synthetic oligomer) [CL02A3AM]	–	functional category compared to CL02A3 wt, based on reporter ratio ([1]; % change calculated after subtracting 1.0 from the ratios): LOF (Cells expressing a loss of function mutant have a reporter ratio of <1.11)
